From PubChem BioAssay (NCI)
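GI50: concentration for 50% inhibition of growth. The concentration for full growth arrest is given as TGI.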

Columns and labels:
Assay in all cases: NCI-60 cell line screen, 384-well format
786-0 renal = system: 786-0 renal
A498 renal = system: A498 renal
A549 NSCLC = system: A549 NSCLC
ACHN renal = system: ACHN renal
BT-549 breast = system: BT-549 breast
CAKI-1 renal = system: CAKI-1 renal
CCRF-CEM leukemia = system: CCRF-CEM leukemia
COLO 205 colon = system: COLO 205 colon
DU-145 prostate = system: DU-145 prostate
EKVX NSCLC = system: EKVX NSCLC
HCC-2998 colon = system: HCC-2998 colon
HCT-116 colon = system: HCT-116 colon
HCT-15 colon = system: HCT-15 colon
HL-60(TB) leukemia = system: HL-60(TB) leukemia
HOP-62 NSCLC = system: HOP-62 NSCLC
HOP-92 NSCLC = system: HOP-92 NSCLC
HS 578T breast = system: HS 578T breast
HT29 colon = system: HT29 colon
IGROV1 ovarian = system: IGROV1 ovarian
KM12 colon = system: KM12 colon
LOX IMVI melanoma = system: LOX IMVI melanoma
M14 melanoma = system: M14 melanoma
MALME-3M melanoma = system: MALME-3M melanoma
MCF7 breast = system: MCF7 breast
MDA-MB-231 breast = system: MDA-MB-231 breast
MDA-MB-435 melanoma = system: MDA-MB-435 melanoma
MDA-MB-468 breast = system: MDA-MB-468 breast
MOLT-4 leukemia = system: MOLT-4 leukemia
NCI-H226 lung = system: NCI-H226 lung
NCI-H23 lung = system: NCI-H23 lung
NCI-H322M lung = system: NCI-H322M lung
NCI-H460 NSCLC = system: NCI-H460 NSCLC
NCI-H522 lung = system: NCI-H522 lung
NCI/ADR-RES ovarian = system: NCI/ADR-RES ovarian
OVCAR-3 ovarian = system: OVCAR-3 ovarian
OVCAR-4 ovarian = system: OVCAR-4 ovarian
OVCAR-5 ovarian = system: OVCAR-5 ovarian
OVCAR-8 ovarian = system: OVCAR-8 ovarian
PC-3 prostate = system: PC-3 prostate
RPMI-8226 leukemia = system: RPMI-8226 leukemia
RXF 393 renal = system: RXF 393 renal
SF-268 CNS = system: SF-268 CNS
SF-295 CNS = system: SF-295 CNS
SF-539 CNS = system: SF-539 CNS
SK-MEL-28 melanoma = system: SK-MEL-28 melanoma
SK-MEL-5 melanoma = system: SK-MEL-5 melanoma
SK-OV-3 ovarian = system: SK-OV-3 ovarian
SN12C renal = system: SN12C renal
SNB-19 CNS = system: SNB-19 CNS
SNB-75 CNS = system: SNB-75 CNS
SR leukemia = system: SR leukemia
SW-620 colon = system: SW-620 colon
T-47D breast = system: T-47D breast
TK-10 renal = system: TK-10 renal
U251 glioblastoma = system: U251 glioblastoma
UACC-257 melanoma = system: UACC-257 melanoma
UACC-62 melanoma = system: UACC-62 melanoma
UO-31 renal = system: UO-31 renal

For `CCN(c1cc(-c2ccc(CN3CCOCC3)cc2)cc(C(=O)NCc2c(C)cc(C)[nH]c2=O)c1C)C1CCOCC1`, the GI50 (786-0 renal) was over 85.4 µM, the TGI (786-0 renal) was over 100 µM and the GI50 (A498 renal) was over 81.8 µM. It also gave a TGI (A498 renal) of over 100 µM, a GI50 (A549 NSCLC) of over 76.9 µM and a TGI (A549 NSCLC) of over 100 µM. The GI50 (ACHN renal) was over 100 µM, the TGI (ACHN renal) was over 100 µM and the GI50 (BT-549 breast) was over 37.1 µM. For the same compound, the TGI (BT-549 breast) was over 63.9 µM, the GI50 (CAKI-1 renal) was over 69.4 µM and the TGI (CAKI-1 renal) was over 100 µM. The GI50 (CCRF-CEM leukemia) was over 100 µM, the TGI (CCRF-CEM leukemia) was over 100 µM and the GI50 (COLO 205 colon) was over 100 µM. It also gave a TGI (COLO 205 colon) of over 100 µM, a GI50 (DU-145 prostate) of over 100 µM and a TGI (DU-145 prostate) of over 100 µM. For the same compound, the GI50 (EKVX NSCLC) was over 100 µM, the TGI (EKVX NSCLC) was over 100 µM and the GI50 (HCC-2998 colon) was over 100 µM. The TGI (HCC-2998 colon) was over 100 µM, the GI50 (HCT-116 colon) was over 77.3 µM and the TGI (HCT-116 colon) was over 100 µM. For the same compound, the GI50 (HCT-15 colon) was 98.3 µM, the TGI (HCT-15 colon) was over 100 µM and the GI50 (HL-60(TB) leukemia) was over 49.7 µM. For the same compound, the TGI (HL-60(TB) leukemia) was over 85.8 µM, the GI50 (HOP-62 NSCLC) was over 100 µM and the TGI (HOP-62 NSCLC) was over 100 µM. For the same compound, the GI50 (HOP-92 NSCLC) was over 90.3 µM, the TGI (HOP-92 NSCLC) was over 100 µM and the GI50 (HS 578T breast) was over 100 µM. For the same compound, the TGI (HS 578T breast) was over 100 µM, the GI50 (HT29 colon) was over 100 µM and the TGI (HT29 colon) was over 100 µM. It also gave a GI50 (IGROV1 ovarian) of over 91.5 µM, a TGI (IGROV1 ovarian) of over 100 µM and a GI50 (KM12 colon) of over 100 µM. For the same compound, the TGI (KM12 colon) was over 100 µM, the GI50 (LOX IMVI melanoma) was over 51.5 µM and the TGI (LOX IMVI melanoma) was over 100 µM. For the same compound, the GI50 (M14 melanoma) was over 100 µM, the TGI (M14 melanoma) was over 100 µM and the GI50 (MALME-3M melanoma) was over 100 µM. For the same compound, the TGI (MALME-3M melanoma) was over 100 µM, the GI50 (MCF7 breast) was over 100 µM and the TGI (MCF7 breast) was over 100 µM. It also gave a GI50 (MDA-MB-231 breast) of over 100 µM, a TGI (MDA-MB-231 breast) of over 100 µM and a GI50 (MDA-MB-435 melanoma) of over 100 µM. It also gave a TGI (MDA-MB-435 melanoma) of over 100 µM, a GI50 (MDA-MB-468 breast) of over 100 µM and a TGI (MDA-MB-468 breast) of over 100 µM. It also gave a GI50 (MOLT-4 leukemia) of 68.4 µM, a TGI (MOLT-4 leukemia) of over 100 µM and a GI50 (NCI-H226 lung) of over 100 µM. The TGI (NCI-H226 lung) was over 100 µM, the GI50 (NCI-H23 lung) was over 100 µM and the TGI (NCI-H23 lung) was over 100 µM. For the same compound, the GI50 (NCI-H322M lung) was over 100 µM, the TGI (NCI-H322M lung) was over 100 µM and the GI50 (NCI-H460 NSCLC) was over 100 µM. It also gave a TGI (NCI-H460 NSCLC) of over 100 µM, a GI50 (NCI-H522 lung) of over 100 µM and a TGI (NCI-H522 lung) of over 100 µM. It also gave a GI50 (NCI/ADR-RES ovarian) of over 100 µM, a TGI (NCI/ADR-RES ovarian) of over 100 µM and a GI50 (OVCAR-3 ovarian) of over 100 µM. It also gave a TGI (OVCAR-3 ovarian) of over 100 µM, a GI50 (OVCAR-4 ovarian) of over 100 µM and a TGI (OVCAR-4 ovarian) of over 100 µM. The GI50 (OVCAR-5 ovarian) was over 100 µM, the TGI (OVCAR-5 ovarian) was over 100 µM and the GI50 (OVCAR-8 ovarian) was over 100 µM. It also gave a TGI (OVCAR-8 ovarian) of over 100 µM, a GI50 (PC-3 prostate) of over 100 µM and a TGI (PC-3 prostate) of over 100 µM. The GI50 (RPMI-8226 leukemia) was 1.39 µM, the TGI (RPMI-8226 leukemia) was over 100 µM and the GI50 (RXF 393 renal) was over 60.3 µM. For the same compound, the TGI (RXF 393 renal) was over 100 µM, the GI50 (SF-268 CNS) was over 100 µM and the TGI (SF-268 CNS) was over 100 µM. It also gave a GI50 (SF-295 CNS) of over 100 µM, a TGI (SF-295 CNS) of over 100 µM and a GI50 (SF-539 CNS) of over 100 µM. For the same compound, the TGI (SF-539 CNS) was over 100 µM, the GI50 (SK-MEL-28 melanoma) was over 100 µM and the TGI (SK-MEL-28 melanoma) was over 100 µM. It also gave a GI50 (SK-MEL-5 melanoma) of over 100 µM, a TGI (SK-MEL-5 melanoma) of over 100 µM and a GI50 (SK-OV-3 ovarian) of over 100 µM. For the same compound, the TGI (SK-OV-3 ovarian) was over 100 µM, the GI50 (SN12C renal) was over 100 µM and the TGI (SN12C renal) was over 100 µM. The GI50 (SNB-19 CNS) was over 100 µM, the TGI (SNB-19 CNS) was over 100 µM and the GI50 (SNB-75 CNS) was over 100 µM. For the same compound, the TGI (SNB-75 CNS) was over 100 µM, the GI50 (SR leukemia) was over 75.7 µM and the TGI (SR leukemia) was over 100 µM. It also gave a GI50 (SW-620 colon) of over 100 µM, a TGI (SW-620 colon) of over 100 µM and a GI50 (T-47D breast) of over 100 µM. For the same compound, the TGI (T-47D breast) was over 100 µM, the GI50 (TK-10 renal) was over 100 µM and the TGI (TK-10 renal) was over 100 µM. For the same compound, the GI50 (U251 glioblastoma) was over 100 µM, the TGI (U251 glioblastoma) was over 100 µM and the GI50 (UACC-257 melanoma) was over 100 µM. For the same compound, the TGI (UACC-257 melanoma) was over 100 µM, the GI50 (UACC-62 melanoma) was over 100 µM and the TGI (UACC-62 melanoma) was over 100 µM. For the same compound, the GI50 (UO-31 renal) was over 100 µM and the TGI (UO-31 renal) was over 100 µM.
